Measured values taken from ChEMBL document CHEMBL1909046, “DrugMatrix in vitro pharmacology data”.
pIC50, pKi: −log10 of the molar value.

Tests used:
[1] = biological target: Sodium-dependent noradrenaline transporter (Homo sapiens, UniProt P23975); assay: DRUGMATRIX: Norepinephrine Transporter radioligand binding (ligand: [125I] RTI-55); type: cell membranes, MDCK, Membrane; settings: Not Active = under 50% inhibition at 10 µM; for IC50: mdck
Glucocorticoid receptor = biological target: T1, Glucocorticoid receptor (Homo sapiens, UniProt P04150); settings: hela s3; note: in other assays of this panel Not Active means under 50% inhibition at 10 µM
T1 sequence (P04150 whole entry): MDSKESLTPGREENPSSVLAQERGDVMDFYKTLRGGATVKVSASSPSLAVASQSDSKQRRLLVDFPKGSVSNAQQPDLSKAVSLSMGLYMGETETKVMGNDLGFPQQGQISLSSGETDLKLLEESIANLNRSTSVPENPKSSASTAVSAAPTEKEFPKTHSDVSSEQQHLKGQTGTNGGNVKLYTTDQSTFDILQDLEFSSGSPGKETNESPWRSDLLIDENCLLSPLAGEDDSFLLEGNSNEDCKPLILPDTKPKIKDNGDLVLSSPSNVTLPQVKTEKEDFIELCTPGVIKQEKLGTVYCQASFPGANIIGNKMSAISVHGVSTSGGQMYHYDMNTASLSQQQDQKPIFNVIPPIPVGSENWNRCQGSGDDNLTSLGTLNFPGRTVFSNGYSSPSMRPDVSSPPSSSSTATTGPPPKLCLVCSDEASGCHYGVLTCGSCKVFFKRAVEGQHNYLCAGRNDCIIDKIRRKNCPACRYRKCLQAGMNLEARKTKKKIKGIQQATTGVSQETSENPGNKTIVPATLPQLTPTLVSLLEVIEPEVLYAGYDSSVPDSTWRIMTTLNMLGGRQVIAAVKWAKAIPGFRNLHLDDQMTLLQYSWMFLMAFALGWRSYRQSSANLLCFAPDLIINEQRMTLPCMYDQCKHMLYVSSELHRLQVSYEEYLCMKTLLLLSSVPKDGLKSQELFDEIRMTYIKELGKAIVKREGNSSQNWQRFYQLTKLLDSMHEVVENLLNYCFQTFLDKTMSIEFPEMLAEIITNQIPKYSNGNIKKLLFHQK

[2] = biological target: Voltage-gated inwardly rectifying potassium channel KCNH2 (Homo sapiens, UniProt Q12809); settings: hek293; note: in other assays of this panel Not Active means under 50% inhibition at 10 µM
Voltage-gated inwardly rectifying potassium channel KCNH2, sequence (Q12809 whole entry): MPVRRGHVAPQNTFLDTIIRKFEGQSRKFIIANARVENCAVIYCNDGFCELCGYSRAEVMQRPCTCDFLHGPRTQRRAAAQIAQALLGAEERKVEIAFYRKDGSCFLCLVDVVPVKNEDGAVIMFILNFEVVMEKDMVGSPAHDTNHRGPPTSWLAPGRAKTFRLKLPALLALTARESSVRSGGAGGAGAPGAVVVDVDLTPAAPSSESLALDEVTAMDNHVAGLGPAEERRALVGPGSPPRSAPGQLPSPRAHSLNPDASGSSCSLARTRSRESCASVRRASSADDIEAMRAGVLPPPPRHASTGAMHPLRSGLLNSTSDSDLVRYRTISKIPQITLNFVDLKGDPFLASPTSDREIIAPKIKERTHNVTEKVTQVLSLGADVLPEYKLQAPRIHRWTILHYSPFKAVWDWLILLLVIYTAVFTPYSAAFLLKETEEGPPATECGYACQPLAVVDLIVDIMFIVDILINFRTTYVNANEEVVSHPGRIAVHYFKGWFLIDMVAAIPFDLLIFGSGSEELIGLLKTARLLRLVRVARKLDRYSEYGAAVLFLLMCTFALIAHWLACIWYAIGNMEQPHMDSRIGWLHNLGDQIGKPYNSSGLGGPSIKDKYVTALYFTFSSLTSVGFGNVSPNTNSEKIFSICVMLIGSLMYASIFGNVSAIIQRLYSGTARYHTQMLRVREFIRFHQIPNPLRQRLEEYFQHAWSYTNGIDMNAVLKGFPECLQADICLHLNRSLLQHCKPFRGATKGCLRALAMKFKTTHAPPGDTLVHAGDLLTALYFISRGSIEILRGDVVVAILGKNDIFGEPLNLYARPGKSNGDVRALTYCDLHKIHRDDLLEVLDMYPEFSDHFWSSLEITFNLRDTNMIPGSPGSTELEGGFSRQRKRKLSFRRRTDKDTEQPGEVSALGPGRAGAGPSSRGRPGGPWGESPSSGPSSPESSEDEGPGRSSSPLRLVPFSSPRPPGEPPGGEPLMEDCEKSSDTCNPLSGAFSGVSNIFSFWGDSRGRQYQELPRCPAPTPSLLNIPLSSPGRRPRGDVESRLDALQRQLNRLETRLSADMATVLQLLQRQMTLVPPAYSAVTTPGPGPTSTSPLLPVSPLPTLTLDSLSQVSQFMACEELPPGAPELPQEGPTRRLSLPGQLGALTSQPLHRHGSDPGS

Estrogen receptor beta = Estrogen receptor beta (Homo sapiens, UniProt Q92731); settings: sf9; note: in other assays of this panel Not Active means under 50% inhibition at 10 µM
Estrogen receptor beta, sequence (Q92731 whole entry): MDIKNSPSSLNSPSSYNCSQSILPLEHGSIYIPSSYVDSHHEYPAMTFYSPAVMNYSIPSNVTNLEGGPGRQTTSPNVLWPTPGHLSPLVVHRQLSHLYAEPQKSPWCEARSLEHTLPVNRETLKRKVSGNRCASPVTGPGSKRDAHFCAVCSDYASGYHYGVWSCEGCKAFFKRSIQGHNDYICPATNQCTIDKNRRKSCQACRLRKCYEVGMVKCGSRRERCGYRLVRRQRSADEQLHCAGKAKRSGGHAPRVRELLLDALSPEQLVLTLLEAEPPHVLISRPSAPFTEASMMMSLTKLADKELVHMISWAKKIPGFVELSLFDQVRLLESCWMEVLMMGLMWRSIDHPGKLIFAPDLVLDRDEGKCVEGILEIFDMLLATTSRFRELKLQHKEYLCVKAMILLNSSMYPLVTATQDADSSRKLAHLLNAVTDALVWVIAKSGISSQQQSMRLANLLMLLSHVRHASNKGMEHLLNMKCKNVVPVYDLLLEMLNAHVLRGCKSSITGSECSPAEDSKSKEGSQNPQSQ

Cytochrome P450 2C19 = Cytochrome P450 2C19 (Homo sapiens, UniProt P33261); settings: bti-tn-5b1-4; note: in other assays of this panel Not Active means under 50% inhibition at 10 µM
Cytochrome P450 2C19, sequence (P33261 whole entry): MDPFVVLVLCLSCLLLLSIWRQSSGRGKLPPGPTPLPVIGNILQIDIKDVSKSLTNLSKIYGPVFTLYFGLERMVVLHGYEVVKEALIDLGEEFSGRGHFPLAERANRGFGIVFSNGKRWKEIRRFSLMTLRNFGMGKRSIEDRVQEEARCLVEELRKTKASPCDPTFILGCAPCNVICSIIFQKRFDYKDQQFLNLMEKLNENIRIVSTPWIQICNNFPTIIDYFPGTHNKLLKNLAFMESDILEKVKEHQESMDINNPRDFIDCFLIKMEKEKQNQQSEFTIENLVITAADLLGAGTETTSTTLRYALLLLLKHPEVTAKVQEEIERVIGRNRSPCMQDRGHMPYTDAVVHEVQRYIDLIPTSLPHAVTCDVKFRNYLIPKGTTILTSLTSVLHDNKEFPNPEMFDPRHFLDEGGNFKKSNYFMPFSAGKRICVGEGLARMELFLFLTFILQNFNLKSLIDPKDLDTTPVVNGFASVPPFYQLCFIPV

Cytochrome P450 1A2 = biological target: T2, Cytochrome P450 1A2 (Homo sapiens, UniProt P05177); settings: bti-tn-5b1-4; note: in other assays of this panel Not Active means under 50% inhibition at 10 µM
T2 sequence (P05177 whole entry): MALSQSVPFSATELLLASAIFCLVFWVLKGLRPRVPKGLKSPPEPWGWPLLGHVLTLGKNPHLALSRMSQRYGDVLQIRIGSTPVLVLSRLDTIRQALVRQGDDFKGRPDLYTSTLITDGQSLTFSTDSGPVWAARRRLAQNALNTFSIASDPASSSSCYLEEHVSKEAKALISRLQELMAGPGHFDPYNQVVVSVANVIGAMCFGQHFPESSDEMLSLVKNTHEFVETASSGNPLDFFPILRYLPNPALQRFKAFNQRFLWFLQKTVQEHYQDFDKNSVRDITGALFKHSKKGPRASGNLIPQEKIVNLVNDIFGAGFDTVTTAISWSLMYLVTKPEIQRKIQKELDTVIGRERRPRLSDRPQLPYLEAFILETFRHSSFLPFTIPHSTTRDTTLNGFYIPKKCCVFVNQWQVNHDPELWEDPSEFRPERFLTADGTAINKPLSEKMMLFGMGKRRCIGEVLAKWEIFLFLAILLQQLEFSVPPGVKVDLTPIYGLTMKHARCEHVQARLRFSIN

Cytochrome P450 2C9 = Cytochrome P450 2C9 (Homo sapiens, UniProt P11712); settings: bti-tn-5b1-4; note: in other assays of this panel Not Active means under 50% inhibition at 10 µM
Cytochrome P450 2C9, sequence (P11712 whole entry): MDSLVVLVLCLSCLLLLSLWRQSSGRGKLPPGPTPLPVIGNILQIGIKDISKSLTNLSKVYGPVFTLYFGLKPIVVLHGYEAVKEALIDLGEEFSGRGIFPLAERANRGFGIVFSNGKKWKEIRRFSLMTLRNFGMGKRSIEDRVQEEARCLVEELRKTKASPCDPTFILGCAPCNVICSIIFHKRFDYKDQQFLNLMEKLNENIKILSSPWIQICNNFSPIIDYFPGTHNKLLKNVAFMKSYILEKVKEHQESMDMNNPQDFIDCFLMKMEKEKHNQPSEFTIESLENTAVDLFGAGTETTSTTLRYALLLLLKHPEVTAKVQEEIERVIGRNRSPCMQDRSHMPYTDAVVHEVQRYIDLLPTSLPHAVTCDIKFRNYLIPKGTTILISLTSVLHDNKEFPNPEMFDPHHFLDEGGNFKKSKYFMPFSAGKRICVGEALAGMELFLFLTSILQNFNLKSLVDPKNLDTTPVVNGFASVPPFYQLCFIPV

Cytochrome P450 2D6 = Cytochrome P450 2D6 (Homo sapiens, UniProt P10635); settings: bti-tn-5b1-4; note: in other assays of this panel Not Active means under 50% inhibition at 10 µM
Cytochrome P450 2D6, sequence (P10635 whole entry): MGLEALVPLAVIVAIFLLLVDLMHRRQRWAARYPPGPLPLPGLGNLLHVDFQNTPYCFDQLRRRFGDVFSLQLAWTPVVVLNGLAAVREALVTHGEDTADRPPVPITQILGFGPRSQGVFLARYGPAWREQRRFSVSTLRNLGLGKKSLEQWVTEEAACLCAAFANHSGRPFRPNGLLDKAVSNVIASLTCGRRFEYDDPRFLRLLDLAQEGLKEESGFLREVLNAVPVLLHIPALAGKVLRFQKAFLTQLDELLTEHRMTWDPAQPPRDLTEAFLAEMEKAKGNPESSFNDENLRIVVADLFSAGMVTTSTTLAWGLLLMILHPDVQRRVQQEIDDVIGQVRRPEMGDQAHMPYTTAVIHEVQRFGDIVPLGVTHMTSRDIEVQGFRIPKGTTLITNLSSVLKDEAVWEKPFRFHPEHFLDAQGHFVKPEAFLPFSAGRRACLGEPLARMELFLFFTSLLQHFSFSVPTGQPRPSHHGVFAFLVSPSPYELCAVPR

Cytochrome P450 3A4 = Cytochrome P450 3A4 (Homo sapiens, UniProt P08684); settings: bti-tn-5b1-4; note: in other assays of this panel Not Active means under 50% inhibition at 10 µM
Cytochrome P450 3A4, sequence (P08684 whole entry): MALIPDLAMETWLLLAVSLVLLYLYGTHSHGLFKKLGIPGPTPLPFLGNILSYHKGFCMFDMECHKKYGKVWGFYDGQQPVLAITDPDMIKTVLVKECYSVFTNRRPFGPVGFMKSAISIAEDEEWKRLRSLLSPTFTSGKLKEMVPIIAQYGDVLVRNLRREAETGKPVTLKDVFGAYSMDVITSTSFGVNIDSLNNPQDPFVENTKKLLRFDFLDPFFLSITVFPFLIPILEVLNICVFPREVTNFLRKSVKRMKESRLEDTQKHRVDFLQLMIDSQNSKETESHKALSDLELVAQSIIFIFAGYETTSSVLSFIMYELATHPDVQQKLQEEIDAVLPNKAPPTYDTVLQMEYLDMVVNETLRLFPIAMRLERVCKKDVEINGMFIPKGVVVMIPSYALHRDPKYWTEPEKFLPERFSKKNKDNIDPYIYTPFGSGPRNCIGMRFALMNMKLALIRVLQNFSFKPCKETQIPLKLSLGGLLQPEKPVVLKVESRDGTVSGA

Sodium-dependent noradrenaline transporter, sequence (P23975 whole entry): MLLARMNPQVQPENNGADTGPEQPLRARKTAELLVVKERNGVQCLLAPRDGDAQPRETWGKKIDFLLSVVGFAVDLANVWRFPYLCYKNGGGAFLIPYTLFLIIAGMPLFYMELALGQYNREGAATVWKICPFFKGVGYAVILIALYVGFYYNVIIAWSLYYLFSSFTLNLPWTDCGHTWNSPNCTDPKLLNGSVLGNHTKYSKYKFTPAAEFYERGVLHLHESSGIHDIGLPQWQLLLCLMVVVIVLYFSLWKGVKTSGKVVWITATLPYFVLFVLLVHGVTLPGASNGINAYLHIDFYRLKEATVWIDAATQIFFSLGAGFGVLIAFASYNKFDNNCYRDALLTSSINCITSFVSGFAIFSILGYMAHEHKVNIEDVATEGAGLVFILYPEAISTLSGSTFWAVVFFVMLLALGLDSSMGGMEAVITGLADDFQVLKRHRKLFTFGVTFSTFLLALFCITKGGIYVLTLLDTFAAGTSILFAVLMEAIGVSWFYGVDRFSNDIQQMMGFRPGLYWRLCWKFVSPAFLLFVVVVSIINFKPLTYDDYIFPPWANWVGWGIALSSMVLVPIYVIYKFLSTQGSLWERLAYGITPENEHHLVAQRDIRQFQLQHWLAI

CN[C@@H]1[C@@H](O)[C@@H](O[C@@H]2[C@@H](O)[C@H](O[C@H]3OC(CN)=CC[C@H]3N)[C@@H](N)C[C@H]2N)OC[C@]1(C)O [SISOMICIN]
IC50 [1]: Not Active
IC50 (Glucocorticoid receptor): Not Active
IC50 [2]: Not Active
Ki [2]: Not Active

NNc1ccccc1 [PHENYLHYDRAZINE]
IC50 [1]: Not Active
IC50 (Estrogen receptor beta): Not Active
IC50 [2]: Not Active
Ki [2]: Not Active

CC(C)(C)NC(=O)[C@@H]1CN(Cc2cccnc2)CCN1C[C@@H](O)C[C@@H](Cc1ccccc1)C(=O)N[C@H]1c2ccccc2C[C@H]1O.O
IC50 (Cytochrome P450 2C19): Not Active
Ki (Cytochrome P450 2C19): Not Active
IC50 (Cytochrome P450 1A2): Not Active
Ki (Cytochrome P450 1A2): Not Active
IC50 (Cytochrome P450 2C9): Not Active
Ki (Cytochrome P450 2C9): Not Active
IC50 [1]: Not Active
IC50 [2]: Not Active
Ki [2]: Not Active
IC50 (Cytochrome P450 2D6): Not Active
Ki (Cytochrome P450 2D6): Not Active

O=C1c2c(O)ccc(O)c2C(=O)c2c(NCCNCCO)ccc(NCCNCCO)c21 [MITOXANTRONE]
pIC50 ([1]; read-out: IC50): 5.30
pKi ([1]; read-out: Ki): 5.31
IC50 (Glucocorticoid receptor): Not Active
IC50 (Estrogen receptor beta): Not Active

CN(C)[C@@H]1C(O)=C(C(N)=O)C(=O)[C@@]2(O)C(O)=C3C(=O)c4c(O)cccc4[C@@](C)(O)[C@H]3C[C@@H]12 [TETRACYCLINE]
IC50 (Cytochrome P450 2C19): Not Active
Ki (Cytochrome P450 2C19): Not Active
IC50 (Cytochrome P450 3A4): Not Active
Ki (Cytochrome P450 3A4): Not Active
IC50 [1]: Not Active
IC50 (Glucocorticoid receptor): Not Active
IC50 (Estrogen receptor beta): Not Active
IC50 [2]: Not Active
Ki [2]: Not Active
IC50 (Cytochrome P450 2D6): Not Active
Ki (Cytochrome P450 2D6): Not Active

CN(C)CCCN1c2ccccc2CCc2ccc(Cl)cc21 [CLOMIPRAMINE]
IC50 (Cytochrome P450 2C19): Not Active
Ki (Cytochrome P450 2C19): Not Active
IC50 (Cytochrome P450 3A4): Not Active
Ki (Cytochrome P450 3A4): Not Active
IC50 (Cytochrome P450 1A2): Not Active
Ki (Cytochrome P450 1A2): Not Active
IC50 (Cytochrome P450 2C9): Not Active
Ki (Cytochrome P450 2C9): Not Active
IC50 (Glucocorticoid receptor): Not Active
IC50 [2]: Not Active
Ki [2]: Not Active

COc1cc(C(=O)NC2CCCNC2)cc(OC)c1OC (configuration not stated) [TROXIPIDE]
IC50 (Cytochrome P450 2C19): Not Active
Ki (Cytochrome P450 2C19): Not Active
IC50 (Cytochrome P450 3A4): Not Active
Ki (Cytochrome P450 3A4): Not Active
IC50 (Cytochrome P450 1A2): Not Active
Ki (Cytochrome P450 1A2): Not Active
IC50 (Cytochrome P450 2C9): Not Active
Ki (Cytochrome P450 2C9): Not Active
IC50 [1]: Not Active
IC50 (Glucocorticoid receptor): Not Active
IC50 (Estrogen receptor beta): Not Active
IC50 [2]: Not Active
Ki [2]: Not Active
IC50 (Cytochrome P450 2D6): Not Active
Ki (Cytochrome P450 2D6): Not Active

Nc1ccc(S(N)(=O)=O)cc1 [SULFANILAMIDE]
IC50 [1]: Not Active
IC50 (Glucocorticoid receptor): Not Active
IC50 (Estrogen receptor beta): Not Active

Nc1nnc(-c2cccc(Cl)c2Cl)c(N)n1 [LAMOTRIGINE]
IC50 (Cytochrome P450 2C19): Not Active
Ki (Cytochrome P450 2C19): Not Active
IC50 (Cytochrome P450 1A2): Not Active
Ki (Cytochrome P450 1A2): Not Active
IC50 (Cytochrome P450 2C9): Not Active
Ki (Cytochrome P450 2C9): Not Active
IC50 (Estrogen receptor beta): Not Active
IC50 (Cytochrome P450 2D6): Not Active
Ki (Cytochrome P450 2D6): Not Active
